Data on 1 compound can be found in publication PMC10451377, “Rationally Designed Pyrimidine Compounds: Promising Novel Antibiotics for the Treatment of Staphylococcus aureus-Associated Bovine Mastitis” (Antibiotics, 2023).

The test system of one data set is Bovine S. aureus. Kind of data set: Susceptibility of isolate panel (MIC50, MIC90, range). Type of data set: cell-based, Staphylococcus aureus. The following applies: Bovine S. aureus, 48 isolates. An excerpt: (§1) Reference strains for this study (S. aureus ATCC 29213, ATCC 29740 [bovine mastitis strain Newbould], S. epidermidis ATCC 12228, E. coli ATCC 35695, E. faecalis ATCC 29212) were obtained from the American Type Culture Collection (ATCC, Rockville, MD). S. aureus strains CMRSA-10 and CMRSA-2 were obtained from the Laboratoire de santé publique du Québec (LSPQ, Sainte-Anne-de-Bellevue, QC, Canada) and are Canadian CA-MRSA USA-300 and HA-MRSA USA-100 clones, respectively. The strain E. coli imp4213 (lptD), used as a control in MIC assays, is a derivative of E. coli ATCC 35695 (E. coli MC4100) with an increased membrane permeability. […] Other MRSA strains used in this study are clinical isolates of human origin obtained from the microbiology laboratory of the Centre Hospitalier Universitaire de Sherbrooke (CHUS, Sherbrooke, QC, Canada). Bovine mastitis strains (S. aureus, S. chromogenes, S. haemolyticus, S. hominis, S. simulans) were obtained from the Canadian Bovine Mastitis and Milk Quality Research Network (CBRQMN, St-Hyacinthe, QC, Canada). Among these strains, S. aureus 2117 is a high producer of biofilm and was used in the biofilm-eradication assay. S. epidermidis isolates were provided by Centre de Recherche en Infectiologie (CRI) de Québec (Québec, QC, Canada).
(§2) The antibacterial activity of the most promising compound, PC206, was also evaluated against larger groups of clinical isolates of human and animal origin. The MIC50 and MIC90 values represented the concentrations of drug required to inhibit the growth of 50% and 90% of the bacterial strains tested, respectively.

The next data set concerns MRSA. Described as above. Type of data set: cell-based, Staphylococcus aureus. As to conditions: 42 isolates.
Source text: as §1, §2

The subject of the next data set is S. haemolitycus. Described as above. The class given is cell-based, S. haemolyticus.
Source text: as §1, §2

Another data set in a line: LDH release assay. Type of data set: cell-based. The following applies: bovine, MAC-T cells. For orientation: LDH leaks from cells whose membrane has failed.
Data set [1] deals with HepG2 and MAC-T cells versus S. aureus Newbould. Kind of data set: Selectivity ratios over both assays and both cell lines. The class given is cell-based. The following applies: over MTT and LDH assays. The procedure: All CC50 values are reported in Table 3, and plots are provided in the Supplementary Information (Supplementary Figure S2). PC371 had no effect on cell viability even at the highest concentrations tested (CC50 > 600 μM) in both the MTT and the LDH assay and for the two cell lines tested. For the three other compounds, in both cell lines and both assays, a correlation was observed between the effect on cell viability and the length of their aliphatic chain. CC50 of PC372 (5 carbons) was higher than that of PC206 (6 carbons), and both were higher than that of PC383 (10 carbons). Indeed, for the MAC-T cells in the MTT assay, the values were >600 μM (PC372), 317 μM (PC206), and 13.5 μM (PC383). Again, for the MAC-T cell line, the values for the LDH assay were >600 μM (PC372 and PC206) and 23.6 μM (PC383). Similar results were obtained with the HepG2 cells. […] Overall, the MAC-T cells tolerated better exposure to the compounds than the HepG2 cells. To assess the selectivity of the PC2 analogs towards S. aureus, selectivity ratios were calculated. These ratios were obtained by dividing the cytotoxicity CC50 values of an analog by its MIC against S. aureus Newbould. It was not possible to calculate the selectivity ratio for PC371 as its CC50 and MIC values exceeded the maximum values tested.
(In general: Tetrazolium assays rely on reduction of a dye to a coloured formazan, in cell work by metabolically active cells.)

Data set [2] deals with Enterococcus faecalis ATCC 29212. Briefly: Broth microdilution MIC. The following applies: ATCC29212, read-out: Broth Microdilution MIC.
The mark [3] stands for this setting: Staphylococcus aureus, read-out: MIC50.
Where [4] appears, read: Staphylococcus aureus, read-out: MIC90.

Converted amounts (≈) assume the structure as drawn.

Turning to `CCCCCCNc1cc(N)nc(N)n1` [PC206], the “MIC Range” value is 0.5 to 64 µg/mL in the data set on Bovine S. aureus; 2 to 128 µg/mL against MRSA; 4 to 128 µg/mL with S. haemolitycus (S. haemolitycus, 10 isolates). The MIC50 (commonly the lowest concentration that inhibits either 50% of growth or 50% of the strains tested, depending on the study) with Bovine S. aureus (setting [3]) amounted to 8 µg/mL (≈ 38.2 µM); with MRSA (setting [3]), 8 µg/mL (≈ 38.2 µM); with S. haemolitycus (Staphylococcus haemolyticus, S. haemolitycus, 10 isolates, read-out: MIC50), 64 µg/mL (≈ 306 µM). For the same compound, the MIC90 (in general, the lowest concentration that inhibits either 90% of growth or 90% of the strains tested, depending on the study) came out at 16 µg/mL (≈ 76.4 µM) in the data set on Bovine S. aureus (setting [4]), 16 µg/mL (≈ 76.4 µM) in the data set with MRSA (setting [4]) and 128 µg/mL (≈ 612 µM) against S. haemolitycus (Staphylococcus haemolyticus). Moreover, the CC50 (in general, the concentration that lowers cell viability or growth by half) at 24 h was over 600 µM in the data set “LDH release assay” (24 h) and over 125 µg/mL in “LDH release assay” (converted from μM). In addition, the “Selectivity ratio (CC50/MIC against S. aureus Newbould), overall” value in data set [1] is given as “above 3.9”. Besides, the MIC – broadly, the lowest concentration found to suppress growth – in data set [2] was found to be 128 µg/mL (≈ 612 µM).
